Several values for one entry are separate records, joined by “and”; a condition that tells them apart may be missing. Identical values can stand only once.
Tests used:
[1] = test system: prostaglandin endoperoxide synthase; details: Kalkbrenner et al. 1992; read-out: IC50, inhibition of prostaglandin endoperoxide synthase; cited from earlier work
COX-1 = details: (+)-catechin isolated from the bark of Ceiba pentandra; Noreen et al. 1998; read-out: IC50, COX-1 inhibition; cited from earlier work
[2] = test system: cox-2 gene transcription in human colon cancer DLD-1 cells; details: Mutoh et al. 2000, read-out: IC50, suppression of cox-2 gene transcription; cited from earlier work
COX-2 = details: commercially available pure (+)-catechin; Noreen et al. 1998; cited from earlier work
Pseudomonas aeruginosa [3] = test: Hyperoxia plus PA infection, bacterial load in lung homogenate; assay type: in vivo, mice; details: RES 50 mg/kg, UP446 250 mg/kg; hyperoxia and PA
HMGB1 = test: Hyperoxia plus PA infection, extracellular HMGB1 in lung lavage fluids; assay type: in vivo, mice; details: RES 50 mg/kg, UP446 250 mg/kg
Text: Accumulation of extracellular HMGB1 in the airways can compromise innate immunity, leading to an impaired ability to clear invading pathogens and apoptotic neutrophils. This can subsequently cause acute respiratory tract infections, lung injury and even death (Entezari et al., 2012; Patel et al., 2013). To determine whether UP446-attenuated acute lung injury in bacterially infected mice exposed to hyperoxia is due to its impact on the accumulation of extracellular HMGB1 in the airways, the levels of HMGB1 were measured in the lung lavage fluids. As shown previously, prolonged exposure of these mice to hyperoxia followed by microbial infection increased the accumulation of HMGB1 in the airways. […] This elevation can be reduced by pretreatment with either resveratrol (RES) or UP446. […] This correlates with the significant enhanced ability of UP446 to improve host defense mechanisms against microbial infection in the respiratory system.

Pseudomonas aeruginosa [4] = test: Hyperoxia plus PA infection, bacterial load in the airways; details: RES 50 mg/kg, UP446 250 mg/kg; hyperoxia and PA
Protocol: To investigate the effects of regulating natural host defense homeostasis, mice were treated with the bioflavonoid composition, UP446, at 250 mg/kg orally for seven days prior to being exposed to >90% oxygen for 48 hours (with continued UP446 treatment) before being inoculated with microbial Pseudomonas aeruginosa (PA).

BAL total protein = test: Hyperoxia plus PA infection, total protein in lung lavage fluid; details: RES 50 mg/kg, UP446 250 mg/kg; >90% oxygen 48 hours, 24 hours after PA
Protocol: To investigate the effects of regulating natural host defense homeostasis, mice were treated with the bioflavonoid composition, UP446, at 250 mg/kg orally for seven days prior to being exposed to >90% oxygen for 48 hours (with continued UP446 treatment) before being inoculated with microbial Pseudomonas aeruginosa (PA). Mice were euthanized 24 hours after bacterial inoculation, the lungs were lavaged, and total protein content was determined from the lung lavage fluid.

[5] = test system: LPS-induced endotoxemia and sepsis; test: LPS-induced sepsis model, survival (UP446 study); assay type: in vivo, CD-1 mice; details: UP446 250 mg/kg, Sodium Butyrate 500 mg/kg oral
Protocol: CD-1 mice and Sprague Dawley rats were purchased from a USDA approved vendor. Eight weeks old male CD-1 mice and SD rats were purchased form Charles River Laboratories, Inc. (Wilmington, Mass.). Animals were acclimated upon arrival and used for the study. They were housed in a temperature-controlled room (71-72° F.) on a 12-hour light-dark cycle and provided with feed and water ad libitum.
This model used survival rate of animals as the end point measurement (Wang et al., 1999). Lipopolysaccharide (LPS) is an integral component of the outer membrane of gram-negative bacteria and a major contributing factor in the initiation of a generalized inflammatory process that may lead to endotoxin shock. It is a state mediated principally by macrophages/monocytes and is attributed to excessive production of several early phase cytokines such as TNF-α, IL-1, IL-6 and gamma interferon (IFN-γ) as well as a late-stage mediator, HMGB1. Following a median lethal dose of LPS (25 mg/kg) administration dissolved in phosphate-buffered saline (PBS; Lifeline, Lot #07641), animals develop endotoxemia and HMGB1 would be detected in the serum at 8 hours and reach to a peak and plateau levels from 16 to 32 hours after LPS. […] In the current study, we monitored the mice for 4 days after LPS injection. […]
The survival rate was calculated as: 100-[(deceased mice/total number of mice)×100]%.

[6] = test system: LPS-induced endotoxemia and sepsis; test: LPS-induced sepsis model, composition versus its constituents, Colby synergy; assay type: in vivo, CD-1 mice; details: for Mortality rate / Survival rate: SB 500, UP894-II 250, RM405 200, RM406 50 mg/kg
Protocol: On the 8th day, mice were injected intraperitoneally (i.p.) with 25 mg/kg LPS dissolved in PBS at 10 mL/kg. Mice in the UP894-II-treated group received a daily dose of UP894-II at 250 mg/kg. All mice continued to receive the treatment daily for the duration of study, which was completed on the 6th day post LPS injection. Following a median lethal dose of LPS (25 mg/kg) by i.p. administration, animals are expected to develop sepsis within a few hours. If untreated, mice would start to die within 24 hours. Animals were observed hourly. In the current study, we monitored the mice for 6 days after LPS injection.
For the blending of these plant extracts to have unexpected synergy, the observed inhibition needs to be greater than the calculated value.
The survival rate was calculated as: 100-[(deceased mice/total number of mice)×100]%. *p≤0.05

TNF-α = test: LPS-induced acute lung injury, serum TNF-α ELISA; assay type: in vivo, Sprague Dawley rats; details: UP446 250 mg/kg; SB 500 mg/kg
Protocol: The presence of TNF-α in undiluted rat serum was measured using the rat TNF-α Quantikine ELISA kit from RandD Systems (product #: RTA00) as follows: undiluted serum was added to a microplate coated with TNF-α antibody. […] The washing was repeated, and enzyme substrate was added to the plate.

IL-1β = test: LPS-induced acute lung injury, serum IL-1β ELISA; assay type: in vivo, Sprague Dawley rats; details: UP446 250 mg/kg; SB 500 mg/kg
Protocol: The presence of IL-10 in undiluted rat serum was measured using the Rat IL-10 Quantikine ELISA kit from RandD Systems (product #: RLB00) as follows: undiluted serum was added to a microplate coated with IL-1β antibody. […] The washing was repeated, and enzyme substrate was added to the plate.

[7] = test system: LPS-induced acute lung injury; test: LPS-induced acute lung injury, lung histopathology (H&E); assay type: in vivo, Sprague Dawley rats
Protocol: The severity of lung damage as a result of intratracheal LPS was assessed using HandE-stained lung tissue. The left lobe of the lung was used for the histopathology analysis.

CRP = details: UP446 250 mg/kg; SB 500 mg/kg
Protocol: (§1) In this study, we treated Sprague Dawley rats with the test materials orally for 7 days before model induction with LPS. On the 8th day, an hour after oral treatment, LPS was instilled intratracheally (i.t.) at 10 mg/kg dissolved in 0.1 mL/100 g PBS to each rat. The normal control rats received the same volume i.t. of PBS only.
We sacrificed surviving animals 24 hours after intratracheal LPS administration. At necropsy, the bronchoalveolar lavage (BAL) was collected by intratracheal injection of 1.5 mL PBS into the right lobe of the lung, followed by a gentle aspiration at least 3 times. Pooled, recovered fluid was centrifuged at 1,500 rpm for 10 min at 4° C., and was used to measure cytokines (e.g. IL-6) and pulmonary protein levels.
The presence of CRP in rat BAL diluted 1:1,000 was measured using the C-Reactive Protein (PTX1) Rat ELISA kit from Abcam (product #: ab108827) as follows: 1:1,000 diluted BAL was added to a microplate coated with CRP antibody. After 2 hours on a plate shaker at room temperature, CRP in BAL was bound to the plate and the plate was thoroughly washed. […] After developing for 10 minutes at room temperature, a stop solution was added, and the absorbance was read at 450 nm. The concentration of CRP was calculated based on the absorbance readings of an CRP standard curve.

MIP-2/CINC-3 = test: LPS-induced acute lung injury, lung homogenate MIP-2/CINC-3 ELISA; details: UP446 250 mg/kg; SB 500 mg/kg
Protocol: as §1
We sacrificed surviving animals 24 hours after intratracheal LPS administration. At necropsy, the bronchoalveolar lavage (BAL) was collected by intratracheal injection of 1.5 mL PBS into the right lobe of the lung, followed by a gentle aspiration at least 3 times. Pooled, recovered fluid was centrifuged at 1,500 rpm for 10 min at 4° C., and was used to measure cytokines (e.g. IL-6) and pulmonary protein levels. This same right lobe was collected for tissue homogenization from each rat for MIP-2/CINC-3 activity analysis.
The plate was subjected to 5 washes before an enzyme-linked polyclonal CINC-3 was added and allowed to bind for 2 hours. The wells were washed another 5 times before a substrate solution was added to the wells and the enzymatic reaction was allowed to commence for 30 minutes at room temperature protected from light. […] The absorbance of each well was read at 450 nm (with a 580 nm correction) and compared to a standard curve of CINC-3 in order to approximate the amount of CINC-3 in each rat lung homogenate sample.

[8] = 144 hr post LPS (end of observation)

Oc1cc(O)c2c(c1)OC(c1ccc(O)c(O)c1)C(O)C2 (stereo not shown) [Catechin]
IC50 [1]: 40 µM
IC50 (COX-1): 80 µM
IC50 [2]: 415 µM
selectivity for COX-2 (COX-2): no selectivity for COX-2

Oc1ccc(C=Cc2cc(O)cc(O)c2)cc1 [RES, resveratrol]
bacterial load in lung homogenate (Mean ± SD) (Pseudomonas aeruginosa [3]): 0.02 ± 0.02 ×10^5 CFU/mL
reduction in the level of HMGB1 expression vs vehicle-treated hyperoxia and infection (HMGB1): 74.9%
HMGB1 expression in airways (Mean ± SD) (HMGB1; densitometry arbitrary unit, hyperoxia and PA): 29.2 ± 16.5 AU
bacterial load in the airways (Mean ± SD) (Pseudomonas aeruginosa [4]): 2.4 ± 0.6 ×10^5 CFU/mL
BAL Total protein content (Mean ± SE) (BAL total protein): 526.0 ± 15.5 µg/mL

CCCC(=O)[O-].[Na+] [Sodium Butyrate]
Survival Rate (%) after 82 hr [5]: 50%
Mortality rate ([6]; 24 hr post LPS): 15.38%
Survival rate ([6]; 24 hr post LPS): 84.6%
Mortality rate ([6]; 36 hr post LPS): 46.15%
Survival rate ([6]; 36 hr post LPS, listed as SB): 53.9% and 53.8%
Mortality rate ([6]; 48 hr post LPS): 53.85%
Survival rate ([6]; 48 hr post LPS): 46.2%
Mortality rate ([6]; 60 hr post LPS): 61.54%
Survival rate ([6]; 60 hr post LPS): 38.5%
Mortality rate ([6]; 72 hr post LPS): 61.54%
Survival rate ([6]; 72 hr post LPS, listed as SB): 38.5%
Mortality rate ([6]; 96 hr post LPS): 69.23%
Survival rate ([6]; 96 hr post LPS): 30.8%
Mortality rate ([6]; 120 hr post LPS): 69.23%
Survival rate ([6]; 120 hr post LPS): 30.8%
Mortality rate [6, 8]: 69.23%
Survival rate [6, 8]: 30.8%
Mortality rate [6]: 0.00%
Survival rate [6]: 100.0%
Deceased (total) ([6]; up to 144 hours post LPS, N=13): 9
Survived (total) ([6]; up to 144 hours post LPS, N=13): 4
reduction in serum TNF-α level against the vehicle control (TNF-α): 67.9%
reduction in serum IL-1β level (printed IL-10 for UP446) (IL-1β): 65.3%
changes in the histopathology evaluation relative to vehicle ([7]; SB 500 mg/kg, UP446 low-dose 125 mg/kg): minimal changes
Overall Lung Damage Severity ([7]; Score 0-4, UP446 high dose 250 mg/kg, Sodium Butyrate 500 mg/kg): 3.05 ± 0.42
Infiltration of PMN cell ([7]; scores 0-4, UP446 high dose 250 mg/kg, Sodium Butyrate 500 mg/kg): 2.75 ± 0.78
reduction of BAL CRP level relative to vehicle (CRP): moderate reduction in CRP level without statistical significance
reduction in lung homogenate CINC-3 level vs vehicle (MIP-2/CINC-3): 17.7%
